Assay results reported in patent US20200016277A1, “NANOPARTICLES FOR ACTIVE AGENT DELIVERY TO BRAIN CANCERS” (MUSC FOUNDATION FOR RESEARCH DEVELOPMENT, priority 2017, published 2020).

System: U87 cells
Assay: Cytotoxicity of TMZ micelles (Guava ViaCount cell viability assay)
Procedure: Three cytotoxicity experiments, using Guava Via-Count Assay and flow cytometry (EMD Millipore, MA, USA), were performed using increasing concentrations of free TMZ, MTMZ and PMTMZ over increasing time. Cells (30,000 cells per well) were plated in 24-well plates and incubated overnight at 37° C. with 5% CO2. A TMZ solution (1 mg ml^−1) in DMSO was prepared and stored at 4° C. The stock solution was diluted with alpha-MEM and used to prepare free TMZ at increasing concentrations of 0-100 04. Independently, both 1 μM and 10 04 samples of PMTMZ and MTMZ were prepared with alpha-MEM. The triplicate wells were treated with concentrations at a constant volume of 200 μl per well. After 24 h, cell viability was performed using Guava ViaCount Assay and flow cytometry (EMD Millipore). The remaining wells were retreated with the appropriate concentrations over a 10 day period. Viability data was collected and analyzed.

In the case of `Cn1nnc2c(C(N)=O)ncn2c1=O` [free TMZ, temozolomide], the “Cells killed (cell death)” value (U87, 1 μM, between 1 and 5 days) is reported as “approximately 4%” and the Cell death (U87, 10 or 100 μM, between 24 and 72 h) is reported as about 2%.
